Experimental data: PMC6429502, “Synthesis and AChE-Inhibitory Activity of New Benzimidazole Derivatives” (Molecules, 2019)
Entries after “also recorded” stand apart in the source; their conditions may differ. Like-named read-outs stand apart in the source and are kept apart here.

Legend:
Format in all cases: biochemical
AChE [1] = target: T1, AChE (Electrophorus electricus, UniProt O42275); experiment: AChE inhibition, modified Ellman's method; settings: for IC50: determined using 10^−3–10^−9 M concentrations
BChE = tested on: BChE
Description: New benzimidazole-triazole derivatives were designed, synthesized, and evaluated for their potential to inhibit AChE and BChE. First, all the synthesized compounds were tested at 10^−3 M and 10^−4 M concentrations.
The inhibitory activities of the compounds against AChE and BChE were determined in 96-well plates by modified Ellman’s method as defined in our previous studies. Donepezil and tacrine were used as reference drugs. A robotic system, Biotek Precision XS (Winooski, VT, USA), was used for all pipetting processes in the enzyme inhibition assay. Measurements of the percentage inhibition were carried out at 412 nm by using a BioTek-Synergy H1 microplate reader (Winooski, VT, USA). Inhibition potencies of synthesized compounds and IC50 of selected derivatives were calculated as reported previously.

AChE [2] = target: T1, AChE; experiment: Enzyme kinetic studies of AChE inhibition (Lineweaver-Burk plots, secondary plots); settings: 2 × IC50, IC50 and IC50/2, substrate 600 µM to 18.75 µM
Description: Enzyme kinetic studies were carried out in order to determine the mechanism of AChE inhibition. The type of inhibition was forecast using linear Lineweaver-Burk plots. […] The initial velocity measurements were recorded by using different substrate concentrations ranging from 600 µM to 18.75 µM for AChE enzyme. The secondary plots of the Km/Vmax (slope) versus varying concentrations were used to calculate Ki (intercept on the x-axis) values of compounds [35]. The graphical analyses of the steady-state inhibition data for AChE enzyme are shown in Figure 1 and Figure 2, respectively.
Reversible inhibition consists of the following subtypes: mixed-type, competitive, uncompetitive, or noncompetitive. These types of inhibition can be determined with the help of Lineweaver-Burk plots. […] Namely, both compounds can bind to the free enzyme or the enzyme-substrate complex. […] It is known that these interactions occur quickly and can be easily reversed. Therefore, the enzyme and inhibitor complex is rapidly degraded immediately prior to irreversible inhibition. […] As a result, enzyme kinetics studies have shown the biological importance of compounds 3d and 3h due to their mixed type forces, unlike irreversible enzyme inhibitors.
Enzyme kinetic studies were performed for compounds 3d and 3h in order to determine the inhibition type on AChE. […]

T1 sequence (O42275 24-633): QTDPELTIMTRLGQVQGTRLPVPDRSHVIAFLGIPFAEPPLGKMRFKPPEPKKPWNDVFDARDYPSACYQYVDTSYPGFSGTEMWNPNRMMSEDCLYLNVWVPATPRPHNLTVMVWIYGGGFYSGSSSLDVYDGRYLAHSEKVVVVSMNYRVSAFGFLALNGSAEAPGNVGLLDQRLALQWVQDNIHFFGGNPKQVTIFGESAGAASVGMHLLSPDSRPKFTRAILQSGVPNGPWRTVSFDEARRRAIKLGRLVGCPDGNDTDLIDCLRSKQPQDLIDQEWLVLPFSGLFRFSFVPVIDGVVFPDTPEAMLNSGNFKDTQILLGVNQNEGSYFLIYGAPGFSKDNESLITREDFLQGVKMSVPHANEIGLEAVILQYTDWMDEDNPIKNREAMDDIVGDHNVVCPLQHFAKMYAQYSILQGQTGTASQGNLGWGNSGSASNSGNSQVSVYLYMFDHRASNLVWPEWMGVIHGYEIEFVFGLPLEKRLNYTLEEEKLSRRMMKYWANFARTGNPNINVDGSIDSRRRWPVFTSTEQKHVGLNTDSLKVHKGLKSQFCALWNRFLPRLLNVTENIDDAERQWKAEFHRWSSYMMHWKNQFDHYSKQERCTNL

SMILES | % Inhibition AChE (AChE [1]; 10^−3 M) [%] | % Inhibition AChE (AChE [1]; 10^−4 M) [%] | % Inhibition BChE (BChE; 10^−3 M) [%] | % Inhibition BChE (BChE; 10^−4 M) [%] | % Inhibition of AChE (AChE [1]; 10^−5 M) [%] | % Inhibition of AChE (AChE [1]; 10^−6 M) [%] | % Inhibition of AChE (AChE [1]; 10^−7 M) [%] | % Inhibition of AChE (AChE [1]; 10^−8 M) [%] | % Inhibition of AChE (AChE [1]; 10^−9 M) [%] | type of AChE inhibition (AChE [2]) | IC50 (AChE [1]) [nM]
Cn1c(SCC(=O)c2ccc(C#N)cc2)nnc1-c1ccc(-c2nc3cc(Cl)ccc3[nH]2)cc1 [3a, 2-(4-(4-Methyl-5-(2-(4-cyanophenyl)-2-oxo-ethylthio)-4H-1,2,4-triazol-3yl)-phenyl)-5(6)-chloro-1H-benz-imidazole] | 68.18 ± 1.05 | 47.26 ± 0.62 | 40.28 ± 0.98 | 25.13 ± 0.56 | – | – | – | – | – | – | –
Cn1c(SCC(=O)c2ccc(Br)cc2)nnc1-c1ccc(-c2nc3cc(Cl)ccc3[nH]2)cc1 [3b, 2-(4-(4-Methyl-5-(2-(4-bromophenyl)-2-oxo-ethylthio)-4H-1,2,4-triazol-3yl)-phenyl)-5(6)-chloro-1H-benz-imidazole] | 44.20 ± 0.87 | 26.18 ± 0.63 | 28.15 ± 0.97 | 18.42 ± 0.88 | – | – | – | – | – | – | –
Cc1ccc(C(=O)CSc2nnc(-c3ccc(-c4nc5cc(Cl)ccc5[nH]4)cc3)n2C)cc1 [3c, 2-(4-(4-Methyl-5-(2-(4-methylphenyl)-2-oxo-ethylthio)-4H-1,2,4-triazol-3yl)-phenyl)-5(6)-chloro-1H-benz-imidazole] | 39.18 ± 0.71 | 17.89 ± 0.54 | 26.11 ± 0.74 | 20.21 ± 0.61 | – | – | – | – | – | – | –
Cn1c(SCC(=O)c2ccc(O)c(O)c2)nnc1-c1ccc(-c2nc3cc(Cl)ccc3[nH]2)cc1 [3d, 2-(4-(4-Methyl-5-(2-(3,4-dihydroxyphenyl)-2-oxo-ethylthio)-4H-1,2,4-triazol-3yl)-phenyl)-5(6)-chloro-1H-benzimidazole] | 98.55 ± 1.17 | – | 51.19 ± 0.99 | 38.12 ± 0.41 | 87.26 ± 1.28 | 78.85 ± 1.19 | 67.18 ± 0.92 | 45.32 ± 0.82 | 15.75 ± 0.48 | mixed type inhibition; also recorded: reversible inhibitors; also recorded: reversible and mixed-type | –
CCn1c(SCC(=O)c2ccc(C#N)cc2)nnc1-c1ccc(-c2nc3cc(Cl)ccc3[nH]2)cc1 [3e, 2-(4-(4-Ethyl-5-(2-(4-cyanophenyl)-2-oxo-ethylthio)-4H-1,2,4-triazol-3yl)-phenyl)-5(6)-chloro-1H-benz-imidazole] | 77.29 ± 1.06 | 41.22 ± 0.84 | 38.22 ± 0.63 | 22.41 ± 0.47 | – | – | – | – | – | – | –
CCn1c(SCC(=O)c2ccc(Br)cc2)nnc1-c1ccc(-c2nc3cc(Cl)ccc3[nH]2)cc1 [3f, 2-(4-(4-Ethyl-5-(2-(4-bromophenyl)-2-oxo-ethylthio)-4H-1,2,4-triazol-3yl)-phenyl)-5(6)-chloro-1H-benz-imidazole] | 47.22 ± 0.67 | 24.08 ± 0.48 | 29.15 ± 0.59 | 17.88 ± 0.40 | – | – | – | – | – | – | –
CCn1c(SCC(=O)c2ccc(C)cc2)nnc1-c1ccc(-c2nc3cc(Cl)ccc3[nH]2)cc1 [3g, 2-(4-(4-Ethyl-5-(2-(4-methylphenyl)-2-oxo-ethylthio)-4H-1,2,4-triazol-3yl)-phenyl)-5(6)-chloro-1H-benz-imidazole] | 37.20 ± 0.68 | 18.33 ± 0.38 | 31.89 ± 0.99 | 24.75 ± 0.95 | – | – | – | – | – | – | –
CCn1c(SCC(=O)c2ccc(O)c(O)c2)nnc1-c1ccc(-c2nc3cc(Cl)ccc3[nH]2)cc1 [3h, 2-(4-(4-Ethyl-5-(2-(3,4-dihydroxyphenyl)-2-oxo-ethylthio)-4H-1,2,4-triazol-3yl)-phenyl)-5(6)-chloro-1H-benzimidazole] | 98.25 ± 1.12 | – | 61.26 ± 0.90 | 35.20 ± 0.42 | 90.23 ± 1.03 | 81.25 ± 1.08 | 65.32 ± 0.97 | 44.28 ± 0.71 | 17.20 ± 0.58 | mixed type inhibition; also recorded: reversible inhibitors; also recorded: reversible and mixed-type | –
Cn1c(SCC(=O)c2ccc(C#N)cc2)nnc1-c1ccc(-c2nc3cc(F)ccc3[nH]2)cc1 [3i, 2-(4-(4-Methyl-5-(2-(4-cyanophenyl)-2-oxo-ethylthio)-4H-1,2,4-triazol-3yl)-phenyl)-5(6)-fluoro-1H-benz-imidazole] | 61.22 ± 1.02 | 38.28 ± 0.67 | 43.51 ± 0.78 | 18.49 ± 0.50 | – | – | – | – | – | – | –
Cn1c(SCC(=O)c2ccc(Br)cc2)nnc1-c1ccc(-c2nc3cc(F)ccc3[nH]2)cc1 [3j, 2-(4-(4-Methyl-5-(2-(4-bromophenyl)-2-oxo-ethylthio)-4H-1,2,4-triazol-3yl)-phenyl)-5(6)-fluoro-1H-benz-imidazole] | 48.51 ± 0.88 | 18.39 ± 0.60 | 29.64 ± 0.87 | 21.44 ± 0.70 | – | – | – | – | – | – | –
Cc1ccc(C(=O)CSc2nnc(-c3ccc(-c4nc5cc(F)ccc5[nH]4)cc3)n2C)cc1 [3k, 2-(4-(4-Methyl-5-(2-(4-methylphenyl)-2-oxo-ethylthio)-4H-1,2,4-triazol-3yl)-phenyl)-5(6)-fluoro-1H-benz-imidazole] | 42.29 ± 0.71 | 27.88 ± 0.67 | 36.17 ± 0.93 | 21.16 ± 0.97 | – | – | – | – | – | – | –
Cn1c(SCC(=O)c2ccc(O)c(O)c2)nnc1-c1ccc(-c2nc3cc(F)ccc3[nH]2)cc1 [3l, 2-(4-(4-Methyl-5-(2-(3,4-dihydroxyphenyl)-2-oxo-ethylthio)-4H-1,2,4-triazol-3yl)-phenyl)-5(6)-fluoro-1H-benzimidazole] | 94.58 ± 1.74 | – | 55.43 ± 0.47 | 29.88 ± 0.38 | 73.18 ± 1.17 | 68.20 ± 0.97 | 48.11 ± 0.61 | 32.29 ± 0.58 | 18.77 ± 0.37 | – | 169 ± 7.2
CCn1c(SCC(=O)c2ccc(C#N)cc2)nnc1-c1ccc(-c2nc3cc(F)ccc3[nH]2)cc1 [3m, 2-(4-(4-Ethyl-5-(2-(4-cyanophenyl)-2-oxo-ethylthio)-4H-1,2,4-triazol-3yl)-phenyl)-5(6)-fluoro-1H-benz-imidazole] | 59.03 ± 0.88 | 39.26 ± 0.46 | 48.11 ± 0.38 | 20.66 ± 0.45 | – | – | – | – | – | – | –
CCn1c(SCC(=O)c2ccc(Br)cc2)nnc1-c1ccc(-c2nc3cc(F)ccc3[nH]2)cc1 [3n, 2-(4-(4-Ethyl-5-(2-(4-bromophenyl)-2-oxo-ethylthio)-4H-1,2,4-triazol-3yl)-phenyl)-5(6)-fluoro-1H-benz-imidazole] | 49.27 ± 0.55 | 30.21 ± 0.49 | 27.10 ± 0.53 | 18.77 ± 0.42 | – | – | – | – | – | – | –
CCn1c(SCC(=O)c2ccc(C)cc2)nnc1-c1ccc(-c2nc3cc(F)ccc3[nH]2)cc1 [3o, 2-(4-(4-Ethyl-5-(2-(4-methylphenyl)-2-oxo-ethylthio)-4H-1,2,4-triazol-3yl)-phenyl)-5(6)-fluoro-1H-benz-imidazole] | 28.06 ± 0.33 | 19.22 ± 0.30 | 25.99 ± 0.38 | 20.08 ± 0.46 | – | – | – | – | – | – | –
CCn1c(SCC(=O)c2ccc(O)c(O)c2)nnc1-c1ccc(-c2nc3cc(F)ccc3[nH]2)cc1 [3p, 2-(4-(4-Ethyl-5-(2-(3,4-dihydroxyphenyl)-2-oxo-ethylthio)-4H-1,2,4-triazol-3yl)-phenyl)-5(6)-fluoro-1H-benzimidazole] | 87.26 ± 1.17 | – | 53.19 ± 0.46 | 31.44 ± 0.38 | 77.48 ± 1.98 | 71.62 ± 1.08 | 47.83 ± 0.97 | 39.33 ± 0.67 | 15.47 ± 0.64 | – | 140 ± 5.1
